Test results taken from US20230095021A1, “MODULATORS OF TDP-43” (Alteron Therapeutics, Inc., priority 2019, published 2023).

Columns and labels:
CFTR = CFTR localization, immunofluorescence microscopy, U-87 MG cells; assay type: cell-based; conditions: 4 μM, 3 days
Experimental: MDA-MB-231 and U-87 MG cells were cultured on cover slips under the conditions as described above. Cells were treated with DMSO or 4 μM ALT-59 for 3 days. Primary human bronchial epithelial cells isolated from cystic fibrosis patient homozygous for Phe508del-CFTR (Lifeline Cell Technology) were cultured on cover slips in BronchiaLife Cell Culture Medium supplemented with BrochiaLife LifeFactors Kit (Lifeline Cell Technology) and maintained at 37° C. in a CO2 incubator. Cells were treated with DMSO, 4 μM ALT-59, 2 μM ALT-308, or 4 μM ALT-410 for 3 days.
Cells were fixed in 4% paraformaldehyde for 15 minutes and permeabilized in 0.1% Triton X-100 for 2 minutes. After being blocked in 5% BSA (Sigma-Aldrich), cells were incubated with anti-CFTR antibody (Alomone Labs) followed by Alexa Fluor 488 anti-rabbit secondary antibody. Reagents were buffered in GIBCO PBS (Phosphate-Buffered Saline). Images were taken using Carl Zeiss LSM 510 Laser Scanning Microscope. Parameters were set identical for all images.

TDP-43 = molecular target: T1, TDP-43 (Homo sapiens, UniProt Q13148); assay: Solid phase compound-protein complex pull-down with mass spectrometry protein identification; assay type: binding; conditions: precipitated proteins from PLC/PRF/5 and MDA-MB-231 cell lysates
T1 construct: added to whole cell lysate containing 5 mg protein; endogenous in cells; host or cells: MDA-MB-231 and PLC/PRF/5 whole cell lysates
T1 sequence (Q13148 whole entry): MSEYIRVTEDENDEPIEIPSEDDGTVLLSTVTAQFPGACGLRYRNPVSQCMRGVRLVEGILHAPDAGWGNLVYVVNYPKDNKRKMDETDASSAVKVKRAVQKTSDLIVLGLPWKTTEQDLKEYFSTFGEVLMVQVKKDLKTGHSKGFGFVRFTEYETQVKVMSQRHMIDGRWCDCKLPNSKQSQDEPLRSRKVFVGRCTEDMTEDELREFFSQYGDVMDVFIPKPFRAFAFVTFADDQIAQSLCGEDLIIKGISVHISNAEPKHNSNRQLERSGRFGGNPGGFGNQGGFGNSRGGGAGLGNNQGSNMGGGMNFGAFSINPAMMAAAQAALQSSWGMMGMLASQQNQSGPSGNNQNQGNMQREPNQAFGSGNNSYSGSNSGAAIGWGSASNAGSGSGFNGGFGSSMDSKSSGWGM
Experimental: MDA-MB-231 and PLC/PRF/5 cells were maintained at 37° C. in a CO2 incubator in Dulbecco's Modified Eagle's Medium (DMEM) supplemented with 10% fetal bovine serum (FBS) and 1% of penicillin/streptomycin (Invitrogen).
The cells were lysed in lysis buffer containing 20 mM 4-(2-hydroxyethyl)-1-piperazineethanesulfonic acid (HEPES), pH 7.5, 0.3% 3-[(3-cholamidopropyl)dimethylammonio]-1-propanesulfonate (CHAPS), 150 mM NaCl, (Sigma-Aldrich), and protease inhibitor cocktail (Roche) with rotation at 4° C. for one hour followed by centrifugation at 15000 for 20 minutes. Ten milligrams of ALT-59 dissolved in DMSO at 20 mM were added to whole cell lysate containing 5 mg protein and incubated on ice for one hour. Compound precipitates out due to high hydrophobicity. Compound-protein complex were spun down at 1000 rpm and washed 5 times with lysis buffer to remove unbound protein. The compound-protein complex were boiled in SDS-PAGE protein sample buffer (1×) (80 mM Tris-HCl, pH 6.8, 2% SDS, 10% Glycerol, 0.1% Bromophenol blue.
For silver staining, proteins were separated on a 10% SDS-PAGE gel. To prepare samples for protein identification using mass spectrometry, protein samples were run into stacking gel and the electrophoresis was stopped after samples were compressed into single bands. […]

LAMP2 pre-mRNA = LAMP2 pre-mRNA alternative splicing, RT-PCR; assay type: cell-based; conditions: MDA-MB-231 cells, 6 μM ALT-59
Experimental: (§1) Long stretches of TG repeats are found in exon 9 and intron 9 of Lamp2 gene. A shorter stretch is located in intron 10. […] RT-PCR analysis was performed to test if ALT-59 treatment affects LAMP2 alternative splicing. MDA-MB-231 cells were cultured as described above and treated with DMSO or 6 μM ALT-59. Total RNA was extracted using the RNeasy Mini Kit (Qiagen) and equal amount of RNA was reverse transcribed using the SuperScript III First-Strand Synthesis System (Invitrogen). PCR reactions were performed using forward primer located on exon 1 and a reverse primer located on exon 11. PCR samples were resolved in a 1.2% agarose gel and stained with ethidium bromide.

CFTR exon 9 = CFTR exon 9 splicing, RT-PCR; assay type: cell-based; conditions: MDA-MB-231 cells
Experimental: as §1
It has been reported that TDP-43 causes CFTR exon 9 skipping, ApoA2 exon 3 skipping, and POLDIP3 exon 3 inclusion. Additional experiments were performed to further confirm that TDP-43 is the target of ALT-59. RT-PCR analysis was performed as described above using the following primers for the three genes. PCR samples were analyzed by polyacrylamide gel electrophoresis and stained with ethidium bromide.

MAP2 = MAP2 expression, Western blot in U-87 MG cells; assay type: cell-based; conditions: 2 days
Experimental: U-87 MG and T98G cells were maintained at 37° C. in a CO2 incubator in Dulbecco's Modified Eagle's Medium (DMEM) supplemented with 10% fetal bovine serum (FBS) and 1% of penicillin/streptomycin (Invitrogen). Cells were treated with DMSO, 3 μM, or 6 μM ALT-59 for 2 days and subjected to Western blotting analysis using the indicated antibodies. Protein bands were quantified using the ImageJ software.

His-Sumo-TDP43 = molecular target: T2, His-Sumo-TDP43 (Homo sapiens, UniProt Q13148); assay: Binding of His-Sumo-TDP43 to TG12-biotin, streptavidin bead pull-down and Western blot
T2 construct: made in house; host or cells: E. coli Rosetta (DE3), vector pSumo/TDP43, Ni-NTA purified
T2 sequence (Q13148 whole entry): as above
Experimental: Additional experiments were performed to confirm the direct binding of ALT-59 to TDP-43. One microgram of purified His-Sumo-TDP43 was incubated with 1 μg TG12-biotin ([…]-biotin (SEQ ID NO: 1)) in binding buffer containing 20 mM HEPES, pH 7.5, 0.3% CHAPS, 150 mM NaCl, (Sigma-Aldrich), and protease inhibitor cocktail (Roche) for 4 hours on ice in the presence of carrier (50% Cremophor EL, 50% absolute ethanol) or 30 μM ALT-59 dissolved in carrier. Streptavidin magnetic beads (20 μl settled beads, GE Healthcare Life Sciences) were added to pull down the DNA-protein complex by rotating at 4° C. for 2 hours. After being washed 5 times with binding buffer, samples were boiled in protein sample buffer. In another experiment, DNA-protein complex bound to Streptavidin magnetic beads were washed and split into three parts, two of which were incubated with either carrier or ALT-59 for 4 hours with rotation at 4° C. to elute TDP-43 from TG12-biotin-streptavidin. The third part and elutes were mixed with protein sample buffer and boiled. Protein samples from the above experiments were loaded onto 4-20% Tris-glycine gel (Invitrogen) for fractionation. Western blotting was performed using anti-TDP-43 antibody (Proteintech Group).

CN(C)c1ccc(C2Nc3ccc4ccccc4c3C3=C2C(=O)CC(C)(C)C3)cc1Br (stereo not drawn) [ALT-59, 5-(3-bromo-4-(dimethylamino)phenyl)-2,2-dimethyl-2,3,5,6-tetrahydrobenzo[a]phenanthridin-4(1H)-one]
CFTR localization (CFTR): redistribution of CFTR from the perinuclear region to the plasma membrane
ALT-59 binding proteins identified by mass spectrometry (TDP-43): TDP-43 (boxed) was ranked as the top hit
level of LAMP2a mRNA (LAMP2 pre-mRNA): reduces the level of LAMP2a mRNA
level of LAMP2c mRNA (LAMP2 pre-mRNA): increases the level of LAMP2c mRNA
CFTR exon 9 inclusion (CFTR exon 9): capable of promoting CFTR exon 9 inclusion
increase of MAP2 expression (MAP2; 3 μM): 1.42 folds
increase of MAP2 expression (MAP2; 6 μM): 2.51 folds
binding of TDP-43 to TG12 (His-Sumo-TDP43; 30 μM ALT-59 in carrier, 4 hours on ice): can block the binding of TDP-43 to TG12
elution of TDP-43 from the TDP43-TG12 complex (His-Sumo-TDP43; preformed DNA-protein complex on streptavidin beads, 4 hours at 4° C.): capable of displacing TG12 from the TDP43-TG12 complex
